{
  "source": "patent US9163256B2",
  "about": "“Mutant receptors and their use in a nuclear receptor-based inducible gene expression system” (priority 2004, dated 2015)",
  "assay_in_all_cases": "cell-based",
  "key": {"[1]": {"biological_target": "CfEcR-DEF mutant A110P (Choristoneura fumiferana, UniProt O77255, A393P)", "sequence (O77255 entry or part of it A393P)": "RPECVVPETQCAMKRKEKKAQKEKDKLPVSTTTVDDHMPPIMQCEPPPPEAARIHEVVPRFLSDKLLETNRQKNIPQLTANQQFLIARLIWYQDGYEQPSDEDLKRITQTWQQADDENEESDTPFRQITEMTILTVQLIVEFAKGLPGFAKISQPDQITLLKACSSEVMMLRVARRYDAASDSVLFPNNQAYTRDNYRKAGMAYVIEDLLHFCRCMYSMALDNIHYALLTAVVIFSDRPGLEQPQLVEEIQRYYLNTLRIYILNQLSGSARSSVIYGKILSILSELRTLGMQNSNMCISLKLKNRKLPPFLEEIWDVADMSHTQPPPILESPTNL", "sequence (P28702 299-449, stated change not applied, further chain)": "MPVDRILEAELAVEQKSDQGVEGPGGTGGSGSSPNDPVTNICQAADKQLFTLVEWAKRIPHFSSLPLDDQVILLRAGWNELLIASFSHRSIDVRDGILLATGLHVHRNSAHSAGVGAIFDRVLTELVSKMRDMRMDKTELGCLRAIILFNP", "how_it_was_run": "(§1)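 Mouse NIH3T3 cells were treated with ligand in DMSO, then transfected with GAL4 luciferase reporter (0.16 μg/well) plus mutant CfEcR-DEF receptor constructs (0.04 μg each/well). Cells were kept at 37° C in 5% FBS and lysed 40 hours after ligand addition for dual-luciferase measurement. Fold induction = ligand RLU ÷ DMSO RLU.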"}, "[2]": {"biological_target": "CfEcR-DEF mutant F48L (Choristoneura fumiferana, UniProt O77255, F331L)", "sequence (P28702 299-449)": "as the sequence (P28702 299-449, stated change not applied, further chain) above", "sequence (O77255 entry or part of it F331L)": "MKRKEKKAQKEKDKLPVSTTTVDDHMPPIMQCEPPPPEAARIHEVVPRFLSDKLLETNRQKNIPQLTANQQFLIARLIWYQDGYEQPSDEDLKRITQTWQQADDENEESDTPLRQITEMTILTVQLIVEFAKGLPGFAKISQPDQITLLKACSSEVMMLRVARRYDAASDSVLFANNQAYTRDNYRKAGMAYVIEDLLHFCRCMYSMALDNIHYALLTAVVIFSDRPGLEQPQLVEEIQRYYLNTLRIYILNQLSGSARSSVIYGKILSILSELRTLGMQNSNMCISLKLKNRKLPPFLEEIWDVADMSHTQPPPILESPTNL", "how_it_was_run": "as §1"}, "[3]": {"biological_target": "CfEcR-DEF mutant M125C (Choristoneura fumiferana, UniProt O77255, M408C)", "sequence (O77255 entry or part of it M408C)": "as the sequence (O77255 entry or part of it A393P) above, with P187A, M202C counted along it", "sequence (P28702 299-449, further chain)": "as the sequence (P28702 299-449, stated change not applied, further chain) above", "how_it_was_run": "as §1"}, "[4]": {"biological_target": "CfEcR-DEF mutant M125E (Choristoneura fumiferana, UniProt O77255, M408E)", "sequence (O77255 entry or part of it M408E)": "as the sequence (O77255 entry or part of it A393P) above, with P187A, M202E counted along it", "sequence (P28702 299-449, further chain)": "as the sequence (P28702 299-449, stated change not applied, further chain) above", "how_it_was_run": "as §1"}, "[5]": {"biological_target": "CfEcR-DEF mutant M125L (Choristoneura fumiferana, UniProt O77255, M408L)", "sequence (P28702 299-449)": "as the sequence (P28702 299-449, stated change not applied, further chain) above", "sequence (O77255 entry or part of it M408L)": "as the sequence (O77255 entry or part of it F331L) above, with L113F, M190L counted along it", "how_it_was_run": "as §1"}, "[6]": {"biological_target": "CfEcR-DEF mutant M125R (Choristoneura fumiferana, UniProt O77255, M408R)", "sequence (P28702 299-449)": "as the sequence (P28702 299-449, stated change not applied, further chain) above", "sequence (O77255 entry or part of it M408R)": "as the sequence (O77255 entry or part of it F331L) above, with L113F, M190R counted along it", "how_it_was_run": "as §1"}, "[7]": {"biological_target": "CfEcR-DEF mutant M92E (Choristoneura fumiferana, UniProt O77255, M375E)", "sequence (P28702 299-449)": "as the sequence (P28702 299-449, stated change not applied, further chain) above", "sequence (O77255 entry or part of it M375E)": "as the sequence (O77255 entry or part of it A393P) above, with M169E, P187A counted along it", "how_it_was_run": "as §1"}, "[8]": {"biological_target": "CfEcR-DEF mutant R95H (Choristoneura fumiferana, UniProt O77255, R378H)", "sequence (P28702 299-449)": "as the sequence (P28702 299-449, stated change not applied, further chain) above", "sequence (O77255 entry or part of it R378H)": "as the sequence (O77255 entry or part of it F331L) above, with L113F, R160H counted along it", "how_it_was_run": "as §1"}, "[9]": {"biological_target": "CfEcR-DEF mutant R95M (Choristoneura fumiferana, UniProt O77255, R378M)", "sequence (P28702 299-449)": "as the sequence (P28702 299-449, stated change not applied, further chain) above", "sequence (O77255 entry or part of it R378M)": "as the sequence (O77255 entry or part of it F331L) above, with L113F, R160M counted along it", "how_it_was_run": "as §1"}, "[10]": {"biological_target": "CfEcR-DEF mutant T52E (Choristoneura fumiferana, UniProt O77255, T335E)", "sequence (O77255 entry or part of it T335E)": "as the sequence (O77255 entry or part of it F331L) above, with L113F, T117E counted along it", "sequence (P28702 299-449, further chain)": "as the sequence (P28702 299-449, stated change not applied, further chain) above", "how_it_was_run": "as §1"}, "[11]": {"biological_target": "CfEcR-DEF mutant V107I/Y127E/A110P (Choristoneura fumiferana, UniProt O77255, A393P/V390I/Y410E)", "sequence (P28702 299-449, stated change not applied)": "as the sequence (P28702 299-449, stated change not applied, further chain) above", "sequence (O77255 entry or part of it V390I/A393P/Y410E)": "as the sequence (O77255 entry or part of it F331L) above, with L113F, V172I, A175P, Y192E counted along it", "how_it_was_run": "as §1"}, "[12]": {"conditions": "NIH3T3, 40 h, read-out: Rel Max FI"}},
  "data": [
    {"compound": "CCc1cccc(C(=O)NN(C(=O)c2cc(C)cc(C)c2)C(C)(C)C)c1C", "note": "[RG-101691, 3,5-Dimethyl-benzoic acid N-tert-butyl-N′-(3-ethyl-2-methyl-benzoyl)-hydrazide]", "values": [
      {"measurement": "EC50", "setting": "[1]", "value": 0.67, "unit": "µM"},
      {"measurement": "Emax", "setting": "[1]; [12]", "value": 89, "unit": "%"},
      {"measurement": "EC50", "setting": "[2]", "value": 0.3, "unit": "µM"},
      {"measurement": "Emax", "setting": "[2]; [12]", "value": 81, "unit": "%"},
      {"measurement": "EC50", "setting": "[3]; EC50, mutant M125C", "value": "≥ 33", "unit": "µM"},
      {"measurement": "Emax", "setting": "[3]; [12]", "value": 62, "unit": "%"},
      {"measurement": "EC50", "setting": "[4]", "value": 0.98, "unit": "µM"},
      {"measurement": "Emax", "setting": "[4]; [12]", "value": 53, "unit": "%"},
      {"measurement": "EC50", "setting": "[5]", "value": "> 33", "unit": "µM"},
      {"measurement": "Emax", "setting": "[5]; [12]", "value": 0, "unit": "%"},
      {"measurement": "EC50", "setting": "[6]", "value": "~10", "unit": "µM"},
      {"measurement": "Emax", "setting": "[6]; [12]", "value": 1, "unit": "%"},
      {"measurement": "EC50", "setting": "[7]", "value": "~20", "unit": "µM"},
      {"measurement": "Emax", "setting": "[7]; [12]", "value": 8, "unit": "%"},
      {"measurement": "EC50", "setting": "[8]", "value": 3.9, "unit": "µM"},
      {"measurement": "Emax", "setting": "[8]; [12]", "value": 96, "unit": "%"},
      {"measurement": "EC50", "setting": "[9]", "value": 3.3, "unit": "µM"},
      {"measurement": "Emax", "setting": "[9]; [12]", "value": 57, "unit": "%"},
      {"measurement": "EC50", "setting": "[10]", "value": "~7", "unit": "µM"},
      {"measurement": "Emax", "setting": "[10]; [12]", "value": 57, "unit": "%"},
      {"measurement": "EC50", "setting": "[11]", "value": 0.34, "unit": "µM"},
      {"measurement": "Emax", "setting": "[11]; [12]", "value": 96, "unit": "%"}
    ]}
  ]
}
